Results from patent US4443436A, “C-20-Modified macrolide derivatives of the macrolide antibiotics tylosin, desmycosin, macrocin, and lactenocin” (Eli Lilly and Company, priority 1982, dated 1984).
Values after ≈ are worked out from the molar mass of the structure shown. Read-outs that look alike come from different tables or passages of the source.

Experiments:
Type in all cases: cell-based
[1] = tested on: Staphylococcus aureus X1.1; experiment: MIC, standard agar-dilution assay, Staphylococcus aureus X1.1; conditions: Staphylococcus aureus, X1.1
[2] = tested on: Staphylococcus aureus V41; experiment: MIC, standard agar-dilution assay, Staphylococcus aureus V41; conditions: Staphylococcus aureus, V41
[3] = tested on: Staphylococcus aureus X400; experiment: MIC, standard agar-dilution assay, Staphylococcus aureus X400
[4] = tested on: Staphylococcus aureus S13E; experiment: MIC, standard agar-dilution assay, Staphylococcus aureus S13E; conditions: Staphylococcus aureus, S13E
[5] = tested on: Staphylococcus epidermidis EPI1; experiment: MIC, standard agar-dilution assay, Staphylococcus epidermidis EPI1
[6] = tested on: Staphylococcus epidermidis EPI2; experiment: MIC, standard agar-dilution assay, Staphylococcus epidermidis EPI2
[7] = tested on: Streptococcus pyogenes C203; experiment: MIC, standard agar-dilution assay, Streptococcus pyogenes C203
[8] = tested on: Streptococcus pneumoniae Park I; experiment: microbe, parasite or virus in culture
[9] = tested on: Streptococcus Group D X66; experiment: MIC, standard agar-dilution assay, Streptococcus Group D X66
Streptococcus Group 9960 = experiment: MIC, standard agar-dilution assay, Streptococcus Group 9960; conditions: GROUP9960
[10] = tested on: Haemophilus influenzae Holt; experiment: MIC, standard agar-dilution assay, Haemophilus influenzae Holt
[11] = tested on: Haemophilus influenzae R252; experiment: MIC, standard agar-dilution assay, Haemophilus influenzae R252
Staphylococcus aureus = experiment: MIC, broth-dilution microtiter test, Staphylococcus aureus
From the text: (§1) The MIC's in Table X were obtained using conventional broth-dilution microtiter tests.

Streptococcus bovis 80 = experiment: MIC, broth-dilution microtiter test, Streptococcus bovis 80; conditions: Streptococcus equinus; Streptococcus bovis 80; broth-dilution microtiter; read-out: MIC
From the text: as §1

[12] = tested on: Pasteurella multocida 17E; experiment: MIC, broth-dilution microtiter test, Pasteurella multocida 17E; conditions: Pasteurella multocida 17E; bovine isolate; broth-dilution microtiter; read-out: MIC
From the text: as §1

[13] = tested on: Pasteurella multocida 60A; experiment: MIC, broth-dilution microtiter test, Pasteurella multocida 60A; conditions: Pasteurella multocida 60A; avian isolate; broth-dilution microtiter; read-out: MIC
From the text: as §1

[14] = tested on: Pasteurella hemolytica 22C; experiment: MIC, broth-dilution microtiter test, Pasteurella hemolytica 22C; conditions: Pasteurella hemolytica 22C; broth-dilution microtiter; read-out: MIC
From the text: as §1

Mycoplasma gallisepticum = experiment: MIC, broth-dilution microtiter test, Mycoplasma gallisepticum; conditions: Mycoplasmoides gallisepticum
From the text: as §1

Mycoplasma synoviae = experiment: MIC, broth-dilution microtiter test, Mycoplasma synoviae; conditions: Mycoplasmopsis synoviae
From the text: as §1

Mycoplasma hyorhinis = experiment: MIC, broth-dilution microtiter test, Mycoplasma hyorhinis
From the text: as §1

Mycoplasma hyopneumoniae = experiment: MIC, broth-dilution microtiter test, Mycoplasma hyopneumoniae; conditions: Mesomycoplasma hyopneumoniae
From the text: as §1

[15] = Staphylococcus epidermidis EPI1, agar dilution, read-out: MIC
[16] = Staphylococcus epidermidis, EPI2
[17] = Haemophilus influenzae R252, ampicillin-resistant strain, read-out: MIC
[18] = broth-dilution microtiter, read-out: MIC
[19] = Mycoplasma gallisepticum, broth-dilution microtiter, read-out: MIC
[20] = Mycoplasma hyopneumoniae, broth-dilution microtiter, read-out: MIC
[21] = Staphylococcus epidermidis, EPI1
[22] = Streptococcus pneumoniae Park I, agar dilution, read-out: MIC
[23] = Streptococcus Group D X66, agar dilution, read-out: MIC
[24] = Haemophilus influenzae Holt, ampicillin-sensitive strain, read-out: MIC
[25] = Streptococcus Group 9960, agar dilution, read-out: MIC
[26] = Mycoplasma synoviae, broth-dilution microtiter, read-out: MIC
[27] = Mycoplasma hyorhinis, broth-dilution microtiter, read-out: MIC

CCC1OC(=O)CC(O)C(C)C(OC2OC(C)C(OC3CC(C)(O)C(O)C(C)O3)C(N(C)C)C2O)C(CCOc2ccc(C(=O)c3ccccc3)cc2)CC(C)C(=O)C=CC(C)=CC1COC1OC(C)C(O)C(OC)C1OC (stereo not drawn) [Compound 13, 20-DH-20-O-(p-Benzoylphenyl)tylosin]
MIC [1]: 1 mg/L (≈ 0.91 µM)
MIC [2]: 1 mg/L (≈ 0.91 µM)
MIC ([3]; Staphylococcus aureus, X400): 4 mg/L (≈ 3.64 µM)
MIC [4]: 1 mg/L (≈ 0.91 µM)
MIC [5, 15]: 2 mg/L (≈ 1.82 µM)
MIC [6, 16]: 1 mg/L (≈ 0.91 µM)
MIC ([7]; Streptococcus pyogenes C203, agar dilution, read-out: MIC): 2 mg/L (≈ 1.82 µM)
MIC ([8]; Streptococcus pneumoniae): 1 mg/L (≈ 0.91 µM)
MIC [9]: 4 mg/L (≈ 3.64 µM)
MIC (Streptococcus Group 9960): 4 mg/L (≈ 3.64 µM)
MIC ([10]; Haemophilus influenzae): > 128 mg/L
MIC [11, 17]: > 128 mg/L
MIC (Staphylococcus aureus; [18]): 1.56 mg/L (≈ 1.42 µM)
MIC (Streptococcus bovis 80): 1.56 mg/L (≈ 1.42 µM)
MIC [12]: > 50 mg/L
MIC [13]: > 50 mg/L
MIC [14]: > 50 mg/L
MIC (Mycoplasma gallisepticum; [19]): 0.78 mg/L (≈ 0.71 µM)
MIC (Mycoplasma synoviae): 6.25 mg/L (≈ 5.69 µM)
MIC (Mycoplasma hyorhinis; Mycoplasma): 6.25 mg/L (≈ 5.69 µM)
MIC (Mycoplasma hyopneumoniae; [20]): 3.12 mg/L (≈ 2.84 µM)

CCC1OC(=O)CC(O)C(C)C(OC2OC(C)C(OC3CC(C)(O)C(O)C(C)O3)C(N(C)C)C2O)C(CCOc2ccc([N+](=O)[O-])cc2)CC(C)C(=O)C=CC(C)=CC1COC1OC(C)C(O)C(OC)C1OC (stereo not drawn) [Compound 12, 20-DH-20-O-(p-Nitrophenyl)tylosin]
MIC [1]: 1 mg/L (≈ 0.962 µM)
MIC [2]: 1 mg/L (≈ 0.962 µM)
MIC ([3]; Staphylococcus aureus, X400): 2 mg/L (≈ 1.92 µM)
MIC [4]: 1 mg/L (≈ 0.962 µM)
MIC [5, 21]: 1 mg/L (≈ 0.962 µM)
MIC ([6]; Staphylococcus epidermidis EPI2, agar dilution, read-out: MIC): 0.5 mg/L (≈ 0.481 µM)
MIC ([7]; Streptococcus pyogenes, C203): 2 mg/L (≈ 1.92 µM)
MIC [8, 22]: 16 mg/L (≈ 15.4 µM)
MIC [9, 23]: 128 mg/L (≈ 123 µM)
MIC (Streptococcus Group 9960): > 128 mg/L
MIC [10, 24]: > 128 mg/L
MIC ([11]; Haemophilus influenzae, R252): 128 mg/L (≈ 123 µM)
MIC (Staphylococcus aureus): 1.56 mg/L (≈ 1.5 µM)
MIC (Streptococcus bovis 80): 25 mg/L (≈ 24.1 µM)
MIC [12]: > 50 mg/L
MIC [13]: > 50 mg/L
MIC [14]: > 50 mg/L
MIC (Mycoplasma gallisepticum; [19]): 0.39 mg/L (≈ 0.375 µM)
MIC (Mycoplasma synoviae): 1.56 mg/L (≈ 1.5 µM)
MIC (Mycoplasma hyorhinis; Mycoplasma): 50 mg/L (≈ 48.1 µM)
MIC (Mycoplasma hyopneumoniae; [20]): > 25 mg/L

CCC1OC(=O)CC(O)C(C)C(OC2OC(C)C(OC3CC(C)(O)C(O)C(C)O3)C(N(C)C)C2O)C(CCSc2ccccc2)CC(C)C(=O)C=CC(C)=CC1COC1OC(C)C(O)C(OC)C1OC (stereo not drawn) [Compound 6, 20-DH-DO-20-(Phenylthio)tylosin]
MIC [1]: 1 mg/L (≈ 0.99 µM)
MIC [2]: 1 mg/L (≈ 0.99 µM)
MIC ([3]; Staphylococcus aureus X400, methicillin-resistant strain, agar dilution, read-out: MIC): 2 mg/L (≈ 1.98 µM)
MIC [4]: 1 mg/L (≈ 0.99 µM)
MIC [5, 15]: 2 mg/L (≈ 1.98 µM)
MIC [6, 16]: 1 mg/L (≈ 0.99 µM)
MIC ([7]; Streptococcus pyogenes, C203): 4 mg/L (≈ 3.96 µM)
MIC ([8]; Streptococcus pneumoniae): 64 mg/L (≈ 63.3 µM)
MIC [9]: > 128 mg/L
MIC (Streptococcus Group 9960; [25]): > 128 mg/L
MIC [10, 24]: > 128 mg/L
MIC [11, 17]: > 128 mg/L
MIC (Staphylococcus aureus): 3.12 mg/L (≈ 3.09 µM)
MIC (Streptococcus bovis 80): > 50 mg/L
MIC [12]: > 50 mg/L
MIC [13]: > 50 mg/L
MIC [14]: > 50 mg/L
MIC (Mycoplasma gallisepticum; [19]): 0.78 mg/L (≈ 0.772 µM)
MIC (Mycoplasma synoviae; [26]): 12.5 mg/L (≈ 12.4 µM)
MIC (Mycoplasma hyorhinis; [27]): > 50 mg/L
MIC (Mycoplasma hyopneumoniae; [20]): > 25 mg/L

CCC1OC(=O)CC(O)C(C)C(OC2OC(C)C(OC3CC(C)(O)C(O)C(C)O3)C(N(C)C)C2O)C(CCOc2cc(Cl)cc(Cl)c2)CC(C)C(=O)C=CC(C)=CC1COC1OC(C)C(O)C(OC)C1OC (stereo not drawn) [Compound 15, 20-DH-20-O-(3,5-Dichlorophenyl)tylosin]
MIC [1]: 1 mg/L (≈ 0.941 µM)
MIC [2]: 2 mg/L (≈ 1.88 µM)
MIC ([3]; Staphylococcus aureus, X400): 4 mg/L (≈ 3.76 µM)
MIC [4]: 1 mg/L (≈ 0.941 µM)
MIC [5, 21]: 2 mg/L (≈ 1.88 µM)
MIC [6, 16]: 1 mg/L (≈ 0.941 µM)
MIC ([7]; Streptococcus pyogenes, C203): 1 mg/L (≈ 0.941 µM)
MIC [8, 22]: 16 mg/L (≈ 15.1 µM)
MIC [9, 23]: > 128 mg/L
MIC (Streptococcus Group 9960; [25]): > 128 mg/L
MIC [10, 24]: > 128 mg/L
MIC [11, 17]: > 128 mg/L
MIC (Staphylococcus aureus; [18]): 1.56 mg/L (≈ 1.47 µM)
MIC (Streptococcus bovis 80): 6.25 mg/L (≈ 5.88 µM)
MIC [12]: > 50 mg/L
MIC [13]: > 50 mg/L
MIC [14]: > 50 mg/L
MIC (Mycoplasma gallisepticum; [19]): 1.56 mg/L (≈ 1.47 µM)
MIC (Mycoplasma synoviae; [26]): 3.12 mg/L (≈ 2.93 µM)
MIC (Mycoplasma hyorhinis; Mycoplasma): 50 mg/L (≈ 47 µM)
MIC (Mycoplasma hyopneumoniae; [20]): > 25 mg/L

CCC1OC(=O)CC(O)C(C)C(OC2OC(C)C(OC3CC(C)(O)C(O)C(C)O3)C(N(C)C)C2O)C(CCOc2ccc(C=O)cc2)CC(C)C(=O)C=CC(C)=CC1COC1OC(C)C(O)C(OC)C1OC (stereo not drawn) [Compound 17, 20-DH-20-O-(p-Formylphenyl)tylosin]
MIC [1]: 1 mg/L (≈ 0.978 µM)
MIC [2]: 1 mg/L (≈ 0.978 µM)
MIC ([3]; Staphylococcus aureus, X400): 2 mg/L (≈ 1.96 µM)
MIC [4]: 1 mg/L (≈ 0.978 µM)
MIC [5, 21]: 1 mg/L (≈ 0.978 µM)
MIC [6, 16]: 0.5 mg/L (≈ 0.489 µM)
MIC ([7]; Streptococcus pyogenes, C203): 1 mg/L (≈ 0.978 µM)
MIC [8, 22]: 16 mg/L (≈ 15.7 µM)
MIC [9]: 128 mg/L (≈ 125 µM)
MIC (Streptococcus Group 9960; [25]): > 128 mg/L
MIC [10, 24]: > 128 mg/L
MIC [11, 17]: > 128 mg/L
MIC (Staphylococcus aureus): 1.56 mg/L (≈ 1.53 µM)
MIC (Streptococcus bovis 80): 50 mg/L (≈ 48.9 µM)
MIC [12]: > 50 mg/L
MIC [13]: > 50 mg/L
MIC [14]: > 50 mg/L
MIC (Mycoplasma gallisepticum): 0.78 mg/L (≈ 0.763 µM)
MIC (Mycoplasma synoviae): 6.25 mg/L (≈ 6.11 µM)
MIC (Mycoplasma hyorhinis; [27]): > 50 mg/L
MIC (Mycoplasma hyopneumoniae): > 25 mg/L
